Values of other authors, collected in patent US11844836B2, “Topical pharmaceutical composition based on semifluorinated alkanes” (DERMALIQ THERAPEUTICS, INC., priority 2011, dated 2023).

Details: testosterone as model drug; pig skin; Hardung, Doctoral Thesis 2008, p. 103

## CCCCCCCCC(F)(F)C(F)(F)C(F)(F)C(F)(F)C(F)(F)C(F)(F)F [F6H8]
  penetration-enhancing effect of the SFA carrier: does not affect an improved penetration into the skin
